Like-named read-outs stand apart in the source and are kept apart here.
Tests used:
A375 cells = assay: Cellular proliferation (SRB) assay in A375; assay type: cell-based, human; details: for Emax: A-375, 120 h
Experimental: (§1) 1000-2000 cells were seeded per well in a 96-well plate and allowed to adhere before DMSO solutions of PAC-1 or vemurafenib were added to each well. Proliferation was assessed by the sulforhodamine B (SRB) assay.

[1] = tested on: caspase-3/-7 activity in SK-MEL-5 cells; details: PAC-1 12 μM, vemurafenib 10 μM
Experimental: (§2) 5,000-8,000 cells were plated in 96 well plates and allowed to adhere. […] Plates were then assessed for caspase-3/7 activity via addition of bifunctional lysis and activity buffer (200 mM HEPES, 400 mM NaCl, 40 mM DTT, 0.4 mM EDTA, 1% Triton-X, pH 7.4) with 20 μM of Ac-DEVD-AFC (SEQ ID NO: 20) (Cayman Chemicals) as the fluorogenic substrate (λex=400 nm, λem=505 nm). Plates were pre-incubated at 37° C. at 30 min in the Synergy multi-mode reader (BioTek) then read for 30 min at 3 min intervals. The slopes for each well were calculated. Activity is expresses as normalized to minimal and maximal activity observed within the assay.

A375 xenograft tumors = assay: A375 subcutaneous mouse xenograft model of melanoma
Experimental: In this model, nude mice were inoculated subcutaneously with A375 cells, and after allowing the tumors to grow, mice were randomized based upon tumor volume into four groups [F=0.03<Fcritical(3.01)] and dosed with PAC-1, vemurafenib, or the combination for 15 days.
0.1 mL of A375 or A375VR in 1:1 DMEM:matrigel (Corning) was injected into the right flank of 6-7 (A375) or 5 (A375VR) week old female athymic nude mice (Charles River). In the both models, the mice were randomized into four groups: control, 100 mg/kg PAC-1, 10 mg/kg vemurafenib, and the combination of 100 mg/kg PAC-1 and 10 mg/kg vemurafenib (n=8). Initial tumor volume measurements were taken and dosing was initiated for a period of 15 days. Vemurafenib was formulated as 5% DMSO in 1% methyl cellulose and given twice daily by oral gavage (p.o.). PAC-1 was formulated in 200 mg/mL hydroxypropyl-β-cyclodextrin at pH 5.5 and given by intraperitoneal (i.p.) injection. Tumor length and width measurements were taken three times a week and volume was calculated as 0.52*L*W^2. At the end of the study, the mice were euthanized and tumors were excised. The tumors were weighed and used for Western blot and immunohistochemistry.

A375VR cells [2] = assay: Cellular proliferation (SRB) assay in vemurafenib-resistant A375VR; assay type: cell-based, human; details: for IC50: 120 h, 5-day
Experimental: To assess if PAC-1 remains active in a cell line that has acquired resistance to vemurafenib, a vemurafenib-resistant A375VR cell line was generated by growing A375 parental cell line in sequentially higher concentrations of vemurafenib (0.5 μM to 1.0 μM) for 2 months. To determine the mechanism of resistance of A375VR, genes for MEK1/2, NRAS and AKT were sequenced, but no commonly reported mutations that would confer resistance were found (Rizos et al., Clinical Cancer Research 2014; 20:1965-77). Similarly, splice variant of the ^V600EBRAF mRNA was also not observed. Through qPCR, A375VR cells have approximately 3-fold higher levels of MDR1 mRNA compared to A375.
as §1

A375VR xenograft tumors = details: nude mice, 15 days; vemurafenib 10 mg/kg, PAC-1 100 mg/kg
Experimental: All animal studies were performed in accordance with UIUC IACUC guidelines (protocol no. 14292). 0.1 mL of A375 or A375VR in 1:1 DMEM:matrigel (Corning) was injected into the right flank of 6-7 (A375) or 5 (A375VR) week old female athymic nude mice (Charles River). In the both models, the mice were randomized into four groups: control, 100 mg/kg PAC-1, 10 mg/kg vemurafenib, and the combination of 100 mg/kg PAC-1 and 10 mg/kg vemurafenib (n=8). Initial tumor volume measurements were taken and dosing was initiated for a period of 15 days. Vemurafenib was formulated as 5% DMSO in 1% methyl cellulose and given twice daily by oral gavage (p.o.). PAC-1 was formulated in 200 mg/mL hydroxypropyl-β-cyclodextrin at pH 5.5 and given by intraperitoneal (i.p.) injection. Tumor length and width measurements were taken three times a week and volume was calculated as 0.52*L*W^2. At the end of the study, the mice were euthanized and tumors were excised. The tumors were weighed and used for Western blot and immunohistochemistry.

A375 and SK-MEL-5 cells = assay: Long-term (up to 30 days) continuous treatment, cell regrowth; assay type: cell-based, human; details: PAC-1 4 μM or vemurafenib 10 μM
Experimental: We therefore hypothesized that long term treatment with vemurafenib would lead to re-growth of cancer cells, while treatment with PAC-1 should prevent re-growth. To investigate this hypothesis, A375 and SK-MEL-5 cells were plated at low densities and treated continuously with PAC-1 (4 μM) or vemurafenib (10 μM) for up to 30 days. […] However, in wells treated with PAC-1, no regrowth was observed even after 30 days (FIG. 5B). Thus, consistent with the higher Emax value, PAC-1 is able to quantitatively kill cells thereby preventing regrowth.

[3] = tested on: PARP-1 cleavage in SK-MEL-5 cells; assay: PARP-1 cleavage Western blot in SK-MEL-5; assay type: cell-based, human; details: PAC-1 12 μM, vemurafenib 10 μM
Experimental: (§3) Cells and tumor tissues were lysed using RIPA buffer containing phosphatase and protease inhibitor cocktail (Calbiochem). The protein concentration of each sample was determined by the BCA assay (Pierce). Cell lysates containing 20 μg of protein was loaded into each lane of 4-20% gradient gels (BioRad) for SDS-PAGE. Proteins were transferred onto PDVF membrane for Western blot analysis.

[4] = tested on: PARP-1 cleavage in A375 cells; assay: PARP-1 cleavage Western blot in A375; assay type: cell-based, human; details: PAC-1 or PAC-1a 12 μM, vemurafenib 10 μM; up to 24 h
Experimental: as §3

[5] = tested on: panel of nine cell lines of diverse origins and BRAF mutational status; assay: Cellular proliferation (SRB) assay, 5-day IC50, panel of nine cell lines; assay type: cell-based; details: 120 h, read-out: IC50 values (5 day)
Experimental: as §1

A375 or UACC-62 cells = assay: In vitro resistance assay (SRB, 5, 10 and 20 days); assay type: cell-based, human; details: for cell number compared to the control, after 5 days: vemurafenib 5 μM or 10 μM; for cell death on day 10: A375, alone or with 1 μM PAC-1
Experimental: The next day, vemurafenib (5 or 10 μM) or PAC-1 (1 μM) were treated in six technical replicates for 5, 10 and 20 days. Fresh media and compounds were added every 2-3 days for the duration of the study. At the end of 5, 10 or 20 days, the wells were fixed with 10% cold trichloroacetic acid for 1 h at 4° C. The wells were then washed, allowed to dry and stained with 0.5% SRB dye for 30 min at room temperature. The wells were then washed with 0.1% acetic acid and allowed to dry. At this point, images of the plates were taken with GelDoc XR (BioRad). Finally, 200 μL of 10 mM Tris base (pH >10.4) was added into well and the absorbance at 510 nm were read using SpectraMax Plus (Molecular Devices). The absorbance at 510 nm is plotted against the days post treatment as an indication of cell proliferation over the time course of the experiment.

[6] = tested on: caspase-3/-7 activity in UACC-62 cells; details: PAC-1 12 μM, vemurafenib 10 μM
Experimental: as §2

[7] = tested on: caspase-3/-7 activity in A375 cells; details: PAC-1 12 μM, vemurafenib 10 μM; combination increase as early as 7 h post-treatment
Experimental: as §2

[8] = tested on: PARP-1 cleavage in UACC-62 cells; assay: PARP-1 cleavage Western blot in UACC-62; assay type: cell-based, human; details: PAC-1 12 μM, vemurafenib 10 μM
Experimental: as §3

[9] = tested on: caspase-3/-7 activity in A375 and UACC-62 cells; details: 24 h; PAC-1 12 μM, vemurafenib 10 μM, trametinib 100 nM
Experimental: (A) Shown is percent apoptotic cell death after 24 h of treatment. […] Activity is expressed as normalized to the positive control. Dashed horizontal lines represent the level of cell death expected from a mere additive effect of the two agents. Values are reported as mean±SEM of at least three experiments.
5,000-8,000 cells were plated in 96 well plates and allowed to adhere. Cells were treated with 1 μM of staurosporine for 24 h or with 13 μM of raptinal (Palchaudhuri et al., Cell Rep 2015; 13:2027-36) for 3 h as positive control, DMSO as negative control and indicated concentrations of PAC-1 and vemurafenib for 0, 2, 4, 7, 10, 12, 16, 20 or 24 h. Plates were then assessed for caspase-3/7 activity via addition of bifunctional lysis and activity buffer (200 mM HEPES, 400 mM NaCl, 40 mM DTT, 0.4 mM EDTA, 1% Triton-X, pH 7.4) with 20 μM of Ac-DEVD-AFC (SEQ ID NO: 20) (Cayman Chemicals) as the fluorogenic substrate (λex=400 nm, λem=505 nm). Plates were pre-incubated at 37° C. at 30 min in the Synergy multi-mode reader (BioTek) then read for 30 min at 3 min intervals. The slopes for each well were calculated. Activity is expresses as normalized to minimal and maximal activity observed within the assay.

A375VR cells [10] = assay: Annexin V/PI apoptosis in A375VR; assay type: cell-based, human; details: 24 h; in combination with low concentrations of vemurafenib
Experimental: FIGS. 13A-C. Effect of the PAC-1 and vemurafenib combination in A375VR cells. (A) Shown is percent apoptotic cell death (assessed by Annexin V/PI staining and flow cytometry) induced after 24 h of treatment. (B) The apoptotic cell death observed in (A) is greater than that predicted by the Bliss independent model. The excess cell death is calculated as [f(observed, apoptotic)−(f(PAC-1, apoptotic)+f(vemurafenib, apoptotic)−f(PAC-1, apoptotic)*f(vemurafenib, apoptotic))]*100%. […] (C) The synergistic effect of PAC-1 and vemurafenib in activating apoptosis in A375VR after 24 h.

[11] = tested on: ERK1/2 phosphorylation in UACC-62 cells; assay: ERK1/2 phosphorylation Western blot in UACC-62; assay type: cell-based, human; details: 24 h; vemurafenib 0.5 μM and 1 μM
Experimental: as §3

[12] = tested on: ERK1/2 phosphorylation in SK-MEL-5 cells; assay: ERK1/2 phosphorylation Western blot in SK-MEL-5; assay type: cell-based, human; details: 24 h; vemurafenib 0.5 μM and 1 μM
Experimental: as §3

[13] = tested on: ERK1/2 phosphorylation in A375 cells; assay: ERK1/2 phosphorylation Western blot in A375; assay type: cell-based, human
Experimental: as §3

[14] = tested on: melanoma patients with the V600E BRAF protein; details: literature; cited from earlier work
[15] = tested on: ERK1/2 phosphorylation in A375VR cells; assay: ERK1/2 phosphorylation Western blot in A375VR; assay type: cell-based, human; details: 2 h; vemurafenib 0.5 or 1 μM
Experimental: as §3

[16] = tested on: ERK1/2 phosphorylation in WTBRAF cell lines; assay: ERK1/2 phosphorylation Western blot in WTBRAF cell lines; assay type: cell-based; details: 24 h; even at high concentrations (30 μM)
Experimental: as §3

For `C=CCc1cccc(/C=N/NC(=O)CN2CCN(Cc3ccccc3)CC2)c1O` [PAC-1, 2-(4-benzylpiperazin-1-yl)-N-[(2-hydroxy-3-prop-2-enyl-phenyl)methylideneamino]acetamide], the “Emax (percent cell death induced by high concentrations of compound)” value (A375 cells; A375 cells, after 5 days) was roughly 100%, the Emax (A375 cells; Homo sapiens, read-out: Emax (percent cell death induced by high concentrations of compound), A375 cells, after 5 days) was 99.4 ± 0.7% and the IC50 (A375 cells; Homo sapiens, A-375, read-out: IC50 value) was 1200 nM. The caspase-3/-7 enzymatic activity [1] was “little effect”, the “reduction in tumor mass and volume compared to untreated control” value (A375 xenograft tumors; PAC-1 100 mg/kg once daily i.p., 15 days) was “minimal reduction” and the IC50 (A375VR cells [2]; Homo sapiens, A375VR) was 2400 nM. For the same molecule, the “antitumor effect (tumor volume compared to untreated control)” value (A375VR xenograft tumors) was “does not exert any antitumor affect”, the “time of continuous treatment to regrowth of cells” value (A375 and SK-MEL-5 cells) was greater than 30 days and the PARP-1 cleavage [3] was “little effect”. The PARP-1 cleavage [4] was “little effect”, the IC50 [5] was 1000 to 4000 nM and the “cell number compared to the control, after 5 days” value (A375 or UACC-62 cells; A375 and UACC-62, PAC-1 1 μM) was “significant reduction in cell number”. The “difference from the control on day 10” value (A375 or UACC-62 cells; PAC-1 1 μM) was “no observable difference”, the caspase-3/-7 enzymatic activity [6] was “little effect” and the caspase-3 activity [7] was “negligible increases”. The PARP-1 cleavage [8] was “little effect” and the caspase-3/-7 activity [9] was “little effect”.
With `O=C(CN1CCN(Cc2ccccc2)CC1)N/N=C/c1ccccc1` [PAC-1a] the “proportion of cells undergoing apoptosis” value (A375VR cells [10]) was “abolished”.
With `CCCS(=O)(=O)Nc1ccc(F)c(C(=O)c2c[nH]c3ncc(-c4ccc(Cl)cc4)cc23)c1F` [vemurafenib] the “Emax (percent cell death induced by high concentrations of compound)” value (A375 cells; A375 cells, after 5 days) was roughly 97%, the Emax (A375 cells; Homo sapiens, A375 cells, after 5 days, read-out: Emax (percent cell death induced by high concentrations of compound)) was 96.8 ± 0.3% and the “A375 cells insensitive to compound” value (A375 cells; after 5 days, from Emax) was roughly 3%. For the same molecule, the caspase-3/-7 enzymatic activity [1] was “little effect”, the “phosphorylation of ERK1/2” value [11] was “inhibited the phosphorylation of ERK1/2” and the “phosphorylation of ERK1/2” value [12] was “inhibited the phosphorylation of ERK1/2”. The “inhibition of ERK1/2 phosphorylation” value ([13]; 2 h, vemurafenib 0.5 or 1 μM, parental A375) was “complete inhibition”, the phospho-ERK1/2 bands ([13]; 24 h, vemurafenib 0.5 and 1.0 μM) was “not observed” and the “reduction in tumor volume compared to control” value (A375 xenograft tumors; nude mice, dosed 15 days, PAC-1 100 mg/kg once daily i.p., vemurafenib 10 mg/kg twice daily p.o.) was 53%. The “mice having comparable tumor mass as the control mice” value (A375 xenograft tumors; vemurafenib 10 mg/kg twice daily p.o., 15 days) was 3 out of 8, the “loss of potency compared to parental A375” value (A375VR cells [2]; 5-day IC50, A375VR vs A375) was 12 fold and the “Emax lower than the parental A375 cell line” value (A375VR cells [2]; A375VR vs A375) was 14%. The IC50 (A375VR cells [2]; Homo sapiens, A375VR) was 1500 nM, the Emax (A375VR cells [2]; Homo sapiens, A375VR) was 79 ± 6.3% and the “extension of progression-free survival” value [14] was 5.3 months. The “antitumor effect (tumor volume compared to untreated control)” value (A375VR xenograft tumors) was “does not exert any antitumor affect”, the “time of continuous treatment to regrowth of cells” value (A375 and SK-MEL-5 cells) was no less than 20 days and the PARP-1 cleavage [3] was “little effect”. For the same molecule, the “complete inhibition of ERK1/2 phosphorylation” value [15] was “not observed”, the PARP-1 cleavage [4] was “little effect” and the IC50 [5] was 200 to 550 nM. The “cell death on day 10” value (A375 or UACC-62 cells; vemurafenib 5 μM) was 89.4±1.4%, the “cell death on day 10” value (A375 or UACC-62 cells; vemurafenib 10 μM) was 93.2±1.1% and the “cell number compared to the control, after 5 days” value (A375 or UACC-62 cells; A375 and UACC-62, PAC-1 1 μM) was “significant reduction in cell number”. The “regrowth of colonies after 20 days of treatment” value (A375 or UACC-62 cells; A375 and UACC-62, vemurafenib 5 or 10 μM, PAC-1 1 μM) was “significant regrowth of colonies”, the caspase-3/-7 enzymatic activity [6] was “little effect” and the caspase-3 activity [7] was “negligible increases”. For the same molecule, the PARP-1 cleavage [8] was “little effect”, the caspase-3/-7 activity [9] was “little effect” and the “inhibition of ERK1/2 phosphorylation” value [16] was “not observed”.

Source: US11129830B2, “PAC-1 combination therapy” (The Board of Trustees of the University of Illinois, priority 2015, dated 2021)
